The test system of this assay is primary rat mixed cortical cells. Description: In vitro myelination assay (MBP positive myelin strands, fold myelin pixels above background). Format: cell-based. The settings on record: Rattus norvegicus; for fold induction at 1 µM: 1.0 μM compound; for fold induction at 10 µM: 10.0 μM compound. In short, it runs like this: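 Fourteen-day treatment of primary P1 rat mixed cortical cultures, re-dosed at days 6 and 10, at 1.0 μM and 10.0 μM. MBP immunofluorescence was imaged at 10× and myelin strands quantified by software, normalised to untreated wells as fold above background.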

Where [1] appears, read: relative to baseline of no added compound, read-out: Fold myelin pixels above background.
The mark [2] stands for this setting: read-out: Fold myelin pixels above background relative to baseline of no added compound.

The structures appear in SMILES notation. Like-named read-outs stand apart in the source and are kept apart here.

Regarding `Cc1cc(Nc2ncn(-c3cc(F)cc(F)c3)n2)cc(N2CC(C(=O)N(C)C)C2)c1` [Compound 711, 1-[3-[[1-(3,5-difluorophenyl)-1,2,4-triazol-3-yl]amino]-5-methyl-phenyl]-N,N-dimethyl-azetidine-3-carboxamide], under setting [1], the fold induction at 1 µM was in the range of 10 to 100 and the fold induction at 10 µM was in the range of 1 to 10.

For the molecule `N#Cc1cc(Nc2ncn(-c3ccc(F)c(F)c3)n2)nc(N2CCN(C3COC3)CC2)c1` [Compound 607, 2-[[1-(3,4-difluorophenyl)-1,2,4-triazol-3-yl]amino]-6-[4-(oxetan-3-yl)piperazin-1-yl]pyridine-4-carbonitrile], under setting [1], the fold induction at 1 µM is 10 to 100 and the fold induction at 10 µM was in the range of 10 to 100.

Consider `Cc1cc(Nc2ncn(-c3cc(F)cc(F)c3)n2)cc(N2CCN(C3CC(F)(F)C3)CC2)c1` [Compound 453, N-[3-[4-(3,3-difluorocyclobutyl)piperazin-1-yl]-5-methyl-phenyl]-1-(3,5-difluorophenyl)-1,2,4-triazol-3-amine], for which, under setting [1], the fold induction at 1 µM lay in the range of 10 to 100 and the fold induction at 10 µM lay within 1000 to 10000.

With `Cc1cc(Nc2ncn(-c3cc(F)cc(F)c3)n2)cc([C@@]2(C)CNC(=O)O2)c1` (stereo in doubt) [Compound 658, 5-[3-[[1-(3,5-difluorophenyl)-1,2,4-triazol-3-yl]amino]-5-methyl-phenyl]-5-methyl-oxazolidin-2-one], under setting [1], the fold induction at 1 µM lay in the range of 10 to 100 and the fold induction at 10 µM was ≤ 1.

Take `Cc1cc(Nc2ncn(-c3cccc(C#N)c3)n2)cc(N2CCN(C3COC3)CC2)c1` [Compound 759, 3-[3-[3-methyl-5-[4-(oxetan-3-yl)piperazin-1-yl]anilino]-1,2,4-triazol-1-yl]benzonitrile]: under setting [1], the fold induction at 1 µM is 1 to 10 and the fold induction at 10 µM is 1 to 10.

As for `COc1c(F)cc(-n2cnc(Nc3cc(C)cc(N4CCN(C5COC5)CC4)c3)n2)cc1F` [Compound 646, 1-(3,5-difluoro-4-methoxy-phenyl)-N-[3-methyl-5-[4-(oxetan-3-yl)piperazin-1-yl]phenyl]-1,2,4-triazol-3-amine], under setting [1], the fold induction at 1 µM was 10 to 100 and the fold induction at 10 µM lay in the range of 1 to 10.

On to `Cc1cc(Nc2ncn(-c3ccc(F)c(F)c3)n2)cc(N2CC(N3CCOCC3)C2)c1` [Compound 720, 1-(3,4-difluorophenyl)-N-[3-methyl-5-(3-morpholinoazetidin-1-yl)phenyl]-1,2,4-triazol-3-amine], for which, under setting [1], the fold induction at 1 µM is 1 to 10 and the fold induction at 10 µM fell in the range of 10 to 100.

As for `COCC1CCN(c2cc(C(F)F)cc(Nc3ncn(-c4cccc(C(F)(F)F)c4)n3)n2)CC1` [Compound 795, 4-(difluoromethyl)-6-[4-(methoxymethyl)-1-piperidyl]-N-[1-[3-(trifluoromethyl)phenyl]-1,2,4-triazol-3-yl]pyridin-2-amine], under setting [2], the fold induction at 1 µM was in the range of 1 to 10 and the fold induction at 10 µM was 1 to 10.

On to `Cc1cc(Nc2ncn(-c3cc(F)cc(F)c3)n2)cc(N2CCC3(CCO3)C2)c1` (stereo not shown) [Compound 901, 1-(3,5-difluorophenyl)-N-[3-methyl-5-(1-oxa-7-azaspiro[3.4]octan-7-yl)phenyl]-1,2,4-triazol-3-amine], for which, under setting [2], the fold induction at 1 µM was 1 to 10 and the fold induction at 10 µM is ≤ 1.

As to `Cc1cc(Nc2ncn(-c3ccnc(F)c3)n2)nc(N2CC(N3CCOCC3)C2)c1` [Compound 504, N-[1-(2-fluoro-4-pyridyl)-1,2,4-triazol-3-yl]-4-methyl-6-(3-morpholinoazetidin-1-yl)pyridin-2-amine], under setting [1], the fold induction at 1 µM was in the range of 10 to 100 and the fold induction at 10 µM was in the range of 10 to 100.

In the case of `CC(=O)N1CCC(Oc2cc(C)cc(Nc3ncn(-c4cc(F)cc(F)c4)n3)c2)CC1` [Compound 805, 1-[4-[3-[[1-(3,5-difluorophenyl)-1,2,4-triazol-3-yl]amino]-5-methyl-phenoxy]-1-piperidyl]ethanone], under setting [2], the fold induction at 1 µM lay within 10 to 100 and the fold induction at 10 µM was 1 to 10.
